Experimental findings from ChEMBL document CHEMBL3352254, “Inhibitors of HGFA, Matriptase, and Hepsin Serine Proteases: A Nonkinase Strategy to Block Cell Signaling in Cancer” (ACS Med Chem Lett, 2014) are described below.

For assay [1], the species on record is Homo sapiens. As to the kind of experiment: Ratio of Ki for matriptase (unknown origin) to Ki for recombinant HGFA (unknown origin).
For assay [2], the species on record is Homo sapiens. As to the kind of experiment: Ratio of Ki for matriptase (unknown origin) to Ki for recombinant hepsin (unknown origin).
The target of assay [3] is T1, Hepatocyte growth factor activator serine protease (Homo sapiens, UniProt Q04756).
T1 sequence (Q04756 whole entry): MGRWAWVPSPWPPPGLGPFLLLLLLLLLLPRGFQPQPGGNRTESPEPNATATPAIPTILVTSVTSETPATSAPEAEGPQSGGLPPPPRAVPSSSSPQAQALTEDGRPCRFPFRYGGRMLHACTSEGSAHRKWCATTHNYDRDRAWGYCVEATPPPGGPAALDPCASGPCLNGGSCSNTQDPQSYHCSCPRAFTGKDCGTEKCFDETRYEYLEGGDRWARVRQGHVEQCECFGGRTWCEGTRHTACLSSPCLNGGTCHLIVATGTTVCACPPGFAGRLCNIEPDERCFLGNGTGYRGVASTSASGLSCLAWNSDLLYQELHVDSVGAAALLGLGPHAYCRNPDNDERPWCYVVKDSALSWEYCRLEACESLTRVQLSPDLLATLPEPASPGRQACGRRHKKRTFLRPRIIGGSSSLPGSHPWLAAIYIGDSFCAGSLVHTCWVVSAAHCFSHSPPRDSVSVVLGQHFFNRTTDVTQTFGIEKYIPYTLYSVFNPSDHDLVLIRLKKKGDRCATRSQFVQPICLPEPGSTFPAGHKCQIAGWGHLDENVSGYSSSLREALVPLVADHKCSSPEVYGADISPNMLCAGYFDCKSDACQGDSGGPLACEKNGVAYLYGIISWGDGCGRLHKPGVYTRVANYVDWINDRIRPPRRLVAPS
As to the kind of experiment: (§1) Inhibition of HGFA in human MDA-MB-231 cells assessed as inhibition of c-MET phosphorylation after 15 mins by immunoblotting. The assay is classed as cell-based.

The target of assay [4] is T2, Hepatocyte growth factor activator serine protease (Homo sapiens) (UniProt Q04756).
T2 sequence (whole entry): T1 sequence (Q04756 whole entry)
Described as §1. The assay is classed as cell-based.

For assay [5], the target named is T2, Hepatocyte growth factor activator serine protease (Homo sapiens). As to the kind of experiment: Inhibition of recombinant HGFA (unknown origin)-mediated proteolytic activation of pro-MSP after 1 hr by immunoblotting.
Assay [6] has the same target. As to the kind of experiment: Inhibition of recombinant HGFA (unknown origin)-mediated proteolytic activation of pro-HGF after 1 hr by immunoblotting.
A further assay deals with Serine protease hepsin (Homo sapiens, UniProt P05981). As to the kind of experiment: Inhibition of recombinant hepsin (unknown origin) using Boc-QAR-AMC as substrate by fluorescence assay.
Sequence of Serine protease hepsin (P05981 1-162 limits assumed): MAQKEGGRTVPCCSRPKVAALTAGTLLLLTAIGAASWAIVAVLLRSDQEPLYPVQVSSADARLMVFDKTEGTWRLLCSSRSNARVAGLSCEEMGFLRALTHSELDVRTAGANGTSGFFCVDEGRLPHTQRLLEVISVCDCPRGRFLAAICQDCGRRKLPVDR
Sequence of Serine protease hepsin (P05981 163-417 limits assumed): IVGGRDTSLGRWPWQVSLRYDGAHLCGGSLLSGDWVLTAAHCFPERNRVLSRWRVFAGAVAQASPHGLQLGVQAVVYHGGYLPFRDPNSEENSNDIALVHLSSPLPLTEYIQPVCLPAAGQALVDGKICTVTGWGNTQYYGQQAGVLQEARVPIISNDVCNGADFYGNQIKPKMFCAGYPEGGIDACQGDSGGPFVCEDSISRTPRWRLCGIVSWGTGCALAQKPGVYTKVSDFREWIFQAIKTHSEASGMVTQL
In assay [7] the target is T3, Suppressor of tumorigenicity 14 protein (Homo sapiens, UniProt Q9Y5Y6).
T3 sequence (Q9Y5Y6 whole entry): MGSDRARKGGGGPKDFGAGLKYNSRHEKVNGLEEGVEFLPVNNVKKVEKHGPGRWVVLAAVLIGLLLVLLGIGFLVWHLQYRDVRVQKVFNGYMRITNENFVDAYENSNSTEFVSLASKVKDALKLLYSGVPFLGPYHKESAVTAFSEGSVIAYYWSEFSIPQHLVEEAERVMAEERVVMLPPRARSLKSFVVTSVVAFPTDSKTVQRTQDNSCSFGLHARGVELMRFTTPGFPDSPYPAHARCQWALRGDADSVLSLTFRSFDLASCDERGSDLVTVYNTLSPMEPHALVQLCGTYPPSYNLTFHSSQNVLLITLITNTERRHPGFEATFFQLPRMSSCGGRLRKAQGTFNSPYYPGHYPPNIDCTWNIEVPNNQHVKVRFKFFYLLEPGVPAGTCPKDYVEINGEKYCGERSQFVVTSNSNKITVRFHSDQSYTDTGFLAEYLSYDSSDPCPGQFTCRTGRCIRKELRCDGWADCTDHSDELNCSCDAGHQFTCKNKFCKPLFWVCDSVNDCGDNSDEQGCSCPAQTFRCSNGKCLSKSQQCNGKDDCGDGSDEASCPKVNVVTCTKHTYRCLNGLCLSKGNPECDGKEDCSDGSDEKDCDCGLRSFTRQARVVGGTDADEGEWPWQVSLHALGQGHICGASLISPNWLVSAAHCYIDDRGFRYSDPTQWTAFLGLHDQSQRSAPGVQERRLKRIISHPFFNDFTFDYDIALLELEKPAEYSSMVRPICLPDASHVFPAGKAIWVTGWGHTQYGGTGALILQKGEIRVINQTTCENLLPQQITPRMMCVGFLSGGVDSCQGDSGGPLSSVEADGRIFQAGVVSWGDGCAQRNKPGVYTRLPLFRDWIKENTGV
The assay can be described thus: Inhibition of matriptase (unknown origin) using Boc-QAR-AMC as substrate by fluorescence assay.

Residues, ends and D or L forms follow the SMILES beside them.

`CC(=O)N[C@@H](CC(C)C)C(=O)N[C@@H](CC(C)C)C(=O)N[C@H](C=O)CCCNC(=N)N`: the Ratio Ki in the assay filed under Homo sapiens [1] and in the assay listed under Homo sapiens [2] was 3 throughout. Regarding `CC(C)C[C@H](NC(=O)[C@H](CCC(N)=O)NC(=O)[C@@H](N)CCCCN)C(=O)N[C@@H](CCCNC(=N)N)C(=O)O` (H-KQLR-OH), the EC50 in assay [3] worked out at 3100 nM. As to `N=C(N)c1ccc2cc(OC(=O)c3ccc(N=C(N)N)cc3)ccc2c1` [NAFAMOSTAT], the EC50 in assay [3] came out at 490 nM. For `CC(=O)N[C@@H](CCCCN)C(=O)N[C@@H](CCCNC(=N)N)C(=O)N[C@@H](CC(C)C)C(=O)N[C@@H](CCCNC(=N)N)C(=O)c1nccs1`, the inhibition result in assay [4], in assay [5] and in assay [6] was “Dose-dependent effect” in each case.

With `CC(=O)N[C@@H](CCCCN)C(=O)N[C@@H](CCC(N)=O)C(=O)N[C@@H](CC(C)C)C(=O)N[C@@H](CCCNC(=N)N)C(=O)c1nccs1`, the results for the Ki (on Serine protease hepsin; in assay [7]) were 0.22 nM and 0.92 nM, respectively. For the same molecule, the inhibition entry in assay [5] and in assay [6] was “Dose-dependent effect” each time. In the assay listed under Homo sapiens [2], the Ratio Ki came out at 200. For the molecule `CC(=O)N[C@@H](Cc1c[nH]c2ccccc12)C(=O)N[C@@H](CCCNC(=N)N)C(=O)N[C@@H](CC(C)C)C(=O)N[C@@H](CCCNC(=N)N)C(=O)c1nccs1`, the inhibition result in assay [5] and in assay [6] was “Dose-dependent effect” in each case. In assay [7], `CC(=O)N[C@@H](CCCCN)C(=O)N[C@@H](Cc1cnc[nH]1)C(=O)N[C@@H](CC(C)C)C(=O)N[C@@H](CCCNC(=N)N)C(=O)c1nccs1` showed a Ki of 22 nM. With `CC(=O)N[C@@H](Cc1c[nH]c2ccccc12)C(=O)N[C@@H](CCC(N)=O)C(=O)N[C@@H](CC(C)C)C(=O)N[C@@H](CCCNC(=N)N)C(=O)c1nccs1`, the affinity in assay [7], expressed as Ki, was 32 nM. With `CC(C)C[C@H](NC(=O)[C@H](CCCNC(=N)N)NC(=O)[C@@H](N)CCCCN)C(=O)N[C@@H](CCCNC(=N)N)C(=O)O` (H-KRLR-OH), the EC50 in assay [3] came to 180 nM. As for `CC(=O)N[C@@H](CO)C(=O)N[C@@H](CCCNC(=N)N)C(=O)N[C@@H](CC(C)C)C(=O)N[C@@H](CCCNC(=N)N)C(=O)c1nccs1`, in assay [5], the inhibition entry was “Dose-dependent effect”.
